The target of test [1] is Serine/threonine-protein kinase WNK3 (Homo sapiens) (UniProt Q9BYP7). The test can be described thus: Selectivity interaction (LanthaScreen Eu Kinase Binding Assay) EUB0001632a WNK3. The following applies: at 10 µM.
Test [2] concerns the target T1, Uncharacterized serine/threonine-protein kinase SBK3 (Homo sapiens) (UniProt P0C264).
T1 sequence (whole entry): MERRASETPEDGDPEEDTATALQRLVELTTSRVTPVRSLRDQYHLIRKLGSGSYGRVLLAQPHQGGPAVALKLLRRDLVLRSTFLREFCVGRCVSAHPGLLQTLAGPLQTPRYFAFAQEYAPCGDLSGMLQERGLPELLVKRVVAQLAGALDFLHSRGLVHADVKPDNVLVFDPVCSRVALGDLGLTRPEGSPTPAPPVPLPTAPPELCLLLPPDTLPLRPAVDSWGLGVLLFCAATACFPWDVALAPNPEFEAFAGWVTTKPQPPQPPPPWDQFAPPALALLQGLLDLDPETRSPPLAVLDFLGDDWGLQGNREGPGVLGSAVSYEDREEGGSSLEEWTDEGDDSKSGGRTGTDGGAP
The test can be described thus: Selectivity interaction (Ambit KINOMEscan and KiNATiv profiling in Jurkat cells) EUB0000090b SBK3. Format: cell-based. Particulars: at 1 µM.

Test [3] has as its target T2, Serine/threonine-protein kinase TAO1 (Homo sapiens) (UniProt Q7L7X3).
T2 sequence (whole entry): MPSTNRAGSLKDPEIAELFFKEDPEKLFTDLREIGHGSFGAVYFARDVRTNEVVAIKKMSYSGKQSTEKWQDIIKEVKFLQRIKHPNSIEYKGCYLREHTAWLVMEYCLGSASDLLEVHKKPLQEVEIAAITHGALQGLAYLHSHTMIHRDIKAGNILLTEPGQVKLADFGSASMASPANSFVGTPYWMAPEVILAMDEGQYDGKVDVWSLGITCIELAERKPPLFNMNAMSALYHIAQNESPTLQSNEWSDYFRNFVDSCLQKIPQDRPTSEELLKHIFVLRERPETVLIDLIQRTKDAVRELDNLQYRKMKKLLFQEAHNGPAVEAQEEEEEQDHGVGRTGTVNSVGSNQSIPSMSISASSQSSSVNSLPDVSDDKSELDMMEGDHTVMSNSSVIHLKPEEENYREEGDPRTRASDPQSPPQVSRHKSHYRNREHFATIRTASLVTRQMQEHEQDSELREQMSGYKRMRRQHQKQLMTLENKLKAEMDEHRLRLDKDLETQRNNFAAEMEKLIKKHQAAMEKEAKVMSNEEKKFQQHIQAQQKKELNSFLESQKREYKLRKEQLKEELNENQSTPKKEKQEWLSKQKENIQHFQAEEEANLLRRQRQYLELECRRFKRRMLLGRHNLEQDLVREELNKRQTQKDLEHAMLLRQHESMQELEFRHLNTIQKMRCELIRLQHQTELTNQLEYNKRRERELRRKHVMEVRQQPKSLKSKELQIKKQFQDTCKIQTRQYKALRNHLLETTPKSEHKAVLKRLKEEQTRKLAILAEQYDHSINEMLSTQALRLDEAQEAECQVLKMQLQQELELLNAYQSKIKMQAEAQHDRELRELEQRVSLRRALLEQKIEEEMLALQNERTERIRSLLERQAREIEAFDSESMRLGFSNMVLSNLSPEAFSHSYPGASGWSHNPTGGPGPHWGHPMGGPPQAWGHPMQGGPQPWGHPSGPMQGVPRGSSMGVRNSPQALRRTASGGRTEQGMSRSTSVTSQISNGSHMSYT
The following applies: at 10 µM.

Test [4] concerns the target Cyclin-dependent kinase 16 (Homo sapiens) (UniProt Q00536). The test can be described thus: Selectivity interaction (KinomeScan (DiscoverX)) EUB0001619a CDK16. Particulars: at 1 µM.
Test [5] deals with Hepatocyte growth factor-like protein (Homo sapiens) (UniProt P26927). The experiment in a line: Selectivity interaction (Kinase panel (Eurofins)) EUB0001564a MST1. Particulars: at 1 µM.
Test [6] deals with Phosphatidylinositol 3-kinase catalytic subunit type 3 (Homo sapiens, UniProt Q8NEB9). The experiment in a line: Selectivity interaction (ActivX KiNativ screen (kinase selectivity in THP-1 cell lysates)) EUB0000639a PIK3C3. In kind it is subcellular. The following applies: lysate.
Test [7] deals with T3, Ephrin type-A receptor 8 (Homo sapiens) (UniProt P29322).
T3 sequence (whole entry): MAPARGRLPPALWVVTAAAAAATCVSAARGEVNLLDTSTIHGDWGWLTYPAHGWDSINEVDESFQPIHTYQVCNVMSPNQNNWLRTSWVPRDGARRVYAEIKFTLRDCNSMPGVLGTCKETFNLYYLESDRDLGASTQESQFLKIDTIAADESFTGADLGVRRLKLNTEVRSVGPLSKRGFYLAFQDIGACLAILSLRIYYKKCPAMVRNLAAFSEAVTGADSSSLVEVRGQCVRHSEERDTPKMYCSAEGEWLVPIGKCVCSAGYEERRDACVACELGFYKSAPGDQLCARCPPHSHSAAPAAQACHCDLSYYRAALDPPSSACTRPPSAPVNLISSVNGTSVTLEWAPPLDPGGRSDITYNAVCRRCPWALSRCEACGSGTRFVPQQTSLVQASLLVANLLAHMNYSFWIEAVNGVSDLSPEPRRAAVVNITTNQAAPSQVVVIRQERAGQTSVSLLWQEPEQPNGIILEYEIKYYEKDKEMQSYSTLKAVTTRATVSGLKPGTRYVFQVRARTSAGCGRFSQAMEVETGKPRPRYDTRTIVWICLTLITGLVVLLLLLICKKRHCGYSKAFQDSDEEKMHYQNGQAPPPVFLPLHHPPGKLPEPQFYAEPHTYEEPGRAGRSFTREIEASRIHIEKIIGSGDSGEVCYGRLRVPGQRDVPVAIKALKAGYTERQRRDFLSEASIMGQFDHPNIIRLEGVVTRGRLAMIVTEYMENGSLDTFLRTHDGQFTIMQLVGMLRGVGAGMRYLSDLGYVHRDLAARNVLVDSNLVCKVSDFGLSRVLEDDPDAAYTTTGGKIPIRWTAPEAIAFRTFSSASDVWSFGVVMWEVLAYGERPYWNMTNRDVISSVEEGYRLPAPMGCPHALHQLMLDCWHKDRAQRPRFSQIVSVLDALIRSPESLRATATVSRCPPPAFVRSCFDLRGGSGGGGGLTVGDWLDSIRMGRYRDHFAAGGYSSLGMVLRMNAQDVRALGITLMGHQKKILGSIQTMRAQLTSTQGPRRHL
The experiment in a line: Selectivity interaction (KinomeScan (DiscoverX)) EUB0000045b EPHA8.

In test [8] the target is Vascular endothelial growth factor receptor 2 (Homo sapiens, UniProt P35968). The test can be described thus: Selectivity interaction (Upstate Kinase Profiler service (Millipore)) EUB0000056c KDR. The following applies: at 1 µM.
For test [9], the target named is Cyclin-dependent kinase 7/ cyclin H (Homo sapiens) (UniProt P51946+P50613). The experiment in a line: Selectivity interaction (Upstate Kinase Profiler service (Millipore)) EUB0000056c CDK7. In kind it is protein-complex assay. Particulars: at 1 µM.
Test [10] has as its target Serine/threonine-protein kinase pim-1 (Homo sapiens, UniProt P11309). Particulars: at 10 µM.

In ChEMBL document CHEMBL5465560, “Selectivity Literature for EUbOPEN Chemogenomic Library” (2024) one finds % of inhibition and % of control data, which are given here for 9 compounds.

Sequence of Phosphatidylinositol 3-kinase catalytic subunit type 3 (Q8NEB9 whole entry): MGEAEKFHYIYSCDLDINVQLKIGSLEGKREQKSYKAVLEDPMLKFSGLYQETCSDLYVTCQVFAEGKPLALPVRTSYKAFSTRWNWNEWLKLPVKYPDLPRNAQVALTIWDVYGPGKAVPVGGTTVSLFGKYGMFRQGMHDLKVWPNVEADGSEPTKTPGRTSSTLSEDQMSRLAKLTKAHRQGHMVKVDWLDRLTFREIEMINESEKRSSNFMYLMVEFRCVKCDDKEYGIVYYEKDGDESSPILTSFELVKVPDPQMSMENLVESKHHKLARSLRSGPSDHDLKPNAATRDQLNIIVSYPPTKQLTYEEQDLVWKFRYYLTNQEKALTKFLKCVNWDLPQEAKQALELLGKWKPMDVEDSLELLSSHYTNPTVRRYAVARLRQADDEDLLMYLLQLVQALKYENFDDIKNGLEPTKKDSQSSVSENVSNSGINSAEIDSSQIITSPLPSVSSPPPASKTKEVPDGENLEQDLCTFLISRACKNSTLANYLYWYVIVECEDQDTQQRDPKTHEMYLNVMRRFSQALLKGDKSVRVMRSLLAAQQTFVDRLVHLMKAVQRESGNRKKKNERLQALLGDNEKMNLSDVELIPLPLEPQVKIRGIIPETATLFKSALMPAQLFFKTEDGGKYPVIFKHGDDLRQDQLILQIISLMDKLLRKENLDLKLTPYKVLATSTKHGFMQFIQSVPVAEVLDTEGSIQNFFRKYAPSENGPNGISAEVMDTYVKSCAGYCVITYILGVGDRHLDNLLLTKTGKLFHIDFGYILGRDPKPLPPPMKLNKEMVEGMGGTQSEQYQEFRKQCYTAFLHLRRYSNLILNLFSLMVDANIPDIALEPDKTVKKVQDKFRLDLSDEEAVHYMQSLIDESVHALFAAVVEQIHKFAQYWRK
Sequence of Cyclin-dependent kinase 16 (Homo sapiens) (Q00536 whole entry): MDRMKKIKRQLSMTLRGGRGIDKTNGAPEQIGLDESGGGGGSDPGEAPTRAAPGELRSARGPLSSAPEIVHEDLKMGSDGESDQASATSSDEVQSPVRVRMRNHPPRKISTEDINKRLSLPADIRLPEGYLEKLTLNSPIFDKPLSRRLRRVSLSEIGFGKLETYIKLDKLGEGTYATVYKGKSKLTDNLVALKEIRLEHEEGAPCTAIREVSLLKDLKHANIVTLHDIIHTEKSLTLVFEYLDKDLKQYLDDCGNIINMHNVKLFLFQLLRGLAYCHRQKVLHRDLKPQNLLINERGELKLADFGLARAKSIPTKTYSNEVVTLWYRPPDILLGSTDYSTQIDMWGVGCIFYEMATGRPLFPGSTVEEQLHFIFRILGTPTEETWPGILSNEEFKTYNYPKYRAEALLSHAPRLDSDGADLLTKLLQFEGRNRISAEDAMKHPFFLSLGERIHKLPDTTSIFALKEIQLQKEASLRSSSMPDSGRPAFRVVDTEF
Sequence of Serine/threonine-protein kinase WNK3 (Homo sapiens) (Q9BYP7 whole entry): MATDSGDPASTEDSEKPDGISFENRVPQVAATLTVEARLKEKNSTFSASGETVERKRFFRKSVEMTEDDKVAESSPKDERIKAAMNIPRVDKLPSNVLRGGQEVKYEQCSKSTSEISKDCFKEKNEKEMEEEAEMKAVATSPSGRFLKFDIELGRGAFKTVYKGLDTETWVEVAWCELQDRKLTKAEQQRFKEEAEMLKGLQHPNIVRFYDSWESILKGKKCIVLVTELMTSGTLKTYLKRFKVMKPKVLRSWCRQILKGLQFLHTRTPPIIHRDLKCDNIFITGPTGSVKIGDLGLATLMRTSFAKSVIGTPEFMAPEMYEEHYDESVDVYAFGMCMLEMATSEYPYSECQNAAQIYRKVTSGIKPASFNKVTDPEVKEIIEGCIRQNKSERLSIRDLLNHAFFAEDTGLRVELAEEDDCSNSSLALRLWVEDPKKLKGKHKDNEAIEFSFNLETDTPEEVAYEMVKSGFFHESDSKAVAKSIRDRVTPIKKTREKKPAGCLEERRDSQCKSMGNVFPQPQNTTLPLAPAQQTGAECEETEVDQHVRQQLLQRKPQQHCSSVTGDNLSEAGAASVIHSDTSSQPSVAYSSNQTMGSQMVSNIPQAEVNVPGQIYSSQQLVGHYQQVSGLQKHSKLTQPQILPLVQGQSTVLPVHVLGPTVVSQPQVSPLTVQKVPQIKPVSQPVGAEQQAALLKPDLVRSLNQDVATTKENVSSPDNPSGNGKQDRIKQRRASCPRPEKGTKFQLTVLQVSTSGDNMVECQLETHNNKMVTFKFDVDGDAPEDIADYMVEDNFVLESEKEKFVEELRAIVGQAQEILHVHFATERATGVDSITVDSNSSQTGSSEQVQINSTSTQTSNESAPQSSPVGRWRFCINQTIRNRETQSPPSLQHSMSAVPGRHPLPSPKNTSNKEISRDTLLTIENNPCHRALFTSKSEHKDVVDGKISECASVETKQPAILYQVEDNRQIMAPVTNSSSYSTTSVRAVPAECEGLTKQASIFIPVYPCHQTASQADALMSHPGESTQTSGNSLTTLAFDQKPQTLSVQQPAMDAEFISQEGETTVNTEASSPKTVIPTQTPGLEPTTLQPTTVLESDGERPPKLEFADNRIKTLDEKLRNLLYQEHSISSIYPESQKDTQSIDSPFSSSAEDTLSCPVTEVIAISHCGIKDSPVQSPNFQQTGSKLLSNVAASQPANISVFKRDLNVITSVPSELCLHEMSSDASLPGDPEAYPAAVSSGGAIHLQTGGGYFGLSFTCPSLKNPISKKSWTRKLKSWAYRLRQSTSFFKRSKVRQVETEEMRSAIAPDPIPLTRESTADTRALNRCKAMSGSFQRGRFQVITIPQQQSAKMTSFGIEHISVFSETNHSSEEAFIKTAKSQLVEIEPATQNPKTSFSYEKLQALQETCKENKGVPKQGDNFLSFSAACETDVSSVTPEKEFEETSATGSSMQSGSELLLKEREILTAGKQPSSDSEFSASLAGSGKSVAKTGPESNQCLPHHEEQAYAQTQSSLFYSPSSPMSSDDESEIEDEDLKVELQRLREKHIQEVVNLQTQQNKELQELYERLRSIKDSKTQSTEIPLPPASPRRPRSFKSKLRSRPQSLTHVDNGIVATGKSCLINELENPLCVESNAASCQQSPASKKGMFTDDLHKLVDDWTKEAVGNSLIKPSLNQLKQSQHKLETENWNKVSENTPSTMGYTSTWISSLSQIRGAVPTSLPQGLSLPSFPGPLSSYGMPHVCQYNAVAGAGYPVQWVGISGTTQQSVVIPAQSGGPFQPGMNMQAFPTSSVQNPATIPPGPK
Sequence of Vascular endothelial growth factor receptor 2 (P35968 whole entry): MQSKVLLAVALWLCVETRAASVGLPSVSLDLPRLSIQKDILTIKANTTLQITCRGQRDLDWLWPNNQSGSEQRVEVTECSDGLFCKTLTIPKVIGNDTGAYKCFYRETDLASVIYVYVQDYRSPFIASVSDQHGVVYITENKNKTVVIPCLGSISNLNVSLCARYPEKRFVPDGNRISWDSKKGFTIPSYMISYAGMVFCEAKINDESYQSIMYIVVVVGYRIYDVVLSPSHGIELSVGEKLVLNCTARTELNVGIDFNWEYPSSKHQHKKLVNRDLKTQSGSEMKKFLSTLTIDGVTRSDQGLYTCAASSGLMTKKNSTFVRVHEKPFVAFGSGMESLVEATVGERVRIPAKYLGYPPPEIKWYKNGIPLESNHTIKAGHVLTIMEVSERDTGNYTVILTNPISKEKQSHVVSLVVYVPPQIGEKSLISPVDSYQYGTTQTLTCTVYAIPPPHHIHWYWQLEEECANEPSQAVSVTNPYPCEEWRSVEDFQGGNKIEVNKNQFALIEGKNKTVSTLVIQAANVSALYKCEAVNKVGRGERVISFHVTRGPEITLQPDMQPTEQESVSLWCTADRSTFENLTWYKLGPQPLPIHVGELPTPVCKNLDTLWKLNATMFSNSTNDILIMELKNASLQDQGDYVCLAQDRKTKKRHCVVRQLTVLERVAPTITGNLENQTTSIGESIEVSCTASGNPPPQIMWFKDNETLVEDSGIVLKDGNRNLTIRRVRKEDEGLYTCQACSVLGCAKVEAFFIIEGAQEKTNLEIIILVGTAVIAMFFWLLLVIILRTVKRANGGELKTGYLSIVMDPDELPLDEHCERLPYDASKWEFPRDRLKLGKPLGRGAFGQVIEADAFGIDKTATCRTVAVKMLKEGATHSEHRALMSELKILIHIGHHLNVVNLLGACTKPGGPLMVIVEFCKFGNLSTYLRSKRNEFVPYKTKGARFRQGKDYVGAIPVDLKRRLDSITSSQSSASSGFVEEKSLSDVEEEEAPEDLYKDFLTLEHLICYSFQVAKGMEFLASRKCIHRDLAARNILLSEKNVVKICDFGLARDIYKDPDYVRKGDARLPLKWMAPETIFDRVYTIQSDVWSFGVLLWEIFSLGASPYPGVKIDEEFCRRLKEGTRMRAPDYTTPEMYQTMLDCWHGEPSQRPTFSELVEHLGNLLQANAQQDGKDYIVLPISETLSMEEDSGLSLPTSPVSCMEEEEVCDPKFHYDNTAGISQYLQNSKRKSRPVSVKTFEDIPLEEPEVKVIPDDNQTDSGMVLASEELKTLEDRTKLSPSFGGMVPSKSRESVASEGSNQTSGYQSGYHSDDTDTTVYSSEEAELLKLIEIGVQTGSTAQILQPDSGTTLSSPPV
Sequence of Serine/threonine-protein kinase pim-1 (P11309 whole entry, looked up): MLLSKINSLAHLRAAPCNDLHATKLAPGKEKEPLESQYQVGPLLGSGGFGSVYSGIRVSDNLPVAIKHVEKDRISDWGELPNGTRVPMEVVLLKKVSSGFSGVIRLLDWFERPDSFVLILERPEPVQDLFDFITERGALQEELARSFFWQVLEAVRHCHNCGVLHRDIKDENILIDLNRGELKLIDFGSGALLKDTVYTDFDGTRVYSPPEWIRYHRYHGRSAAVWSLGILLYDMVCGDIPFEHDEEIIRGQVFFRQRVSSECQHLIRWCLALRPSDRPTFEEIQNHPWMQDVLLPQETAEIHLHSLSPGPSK

As to `Cn1cc(-n2cnc3c(NCc4nc5cc(Cl)c(Cl)cc5[nH]4)nc(N4CCOCC4)nc32)cn1`, in test [1], the % of inhibition was -35.1%.

In turn, `CN(C)C/C=C/C(=O)Nc1ccc(C(=O)N2CCCC(Nc3ncc(Cl)c(-c4c[nH]c5ccccc45)n3)C2)cc1` (stereo not given) returned a % of control in test [2] of 82%.

As for `Cc1cc([C@@H](C)Nc2ccccc2C(=O)O)c2nc(N3CCOCC3)cc(=O)n2c1` [AZD-6482], the % of control in [3] worked out at 59%.

Compound `N#Cc1cccc(-c2c[nH]c3ncnc(N4CCOCC4)c23)c1` registered a % of control in test [4] of 90%.

For `CC[C@@H](Nc1c(C#N)c(-c2ccc(-c3cccc(C)c3F)cc2)nc2cnccc12)C(=O)O` [BAY-091], in test [5], the % of inhibition was 20.6%.

Take `CC[C@@H]1[C@H](F)C(=O)N[C@@H]1COc1nccc2cc(C(N)=O)c(OC)cc12` [ZIMLOVISERTIB]: the % of inhibition in [6] (at 0.01 µM) was 1%; in test [6] (at 0.04 µM) it was -8.9%; in test [6] (at 0.2 µM), -9.3%; in test [6] (at 1 µM), 2.6%; in test [6] (at 5 µM), 6.3%.

Regarding `C=CC(=O)Nc1cc(-n2c(=O)ccc3cnc4ccc(-c5ccc(NS(C)(=O)=O)cc5)cc4c32)ccc1C`, the % of control was determined as 100% in test [7] (at 1 µM) and 76% in [7] (at 10 µM).

For `Cc1ccc(-c2ccc3c(ccc4sc5c(c43)NC[C@@H](C)NC5=O)n2)cn1`, the values for the % of inhibition in test [8] and in test [9] were 21% and 5%, respectively.

`COCC(=O)NC/C=C/c1ccc2ncnc(Nc3ccc(Oc4ccc(C)nc4)c(C)c3)c2c1` [CP-724714] returned a % of control in test [10] of 100%.
